Data reported in patent US20210255193A1, “LYSINE REACTIVE PROBES AND USES THEREOF” (The Scripps Research Institute, priority 2017, published 2021).
One block for each compound: values may come before it.

Experiments:
Assay in all cases: competitive isoTOP-ABPP
Type in all cases: binding
[1] = target: T1, MRPS24 28S ribosomal protein S24, mitochondrial (Homo sapiens, UniProt Q96EL2); conditions: for isoTOP-ABPP ratio (R) at liganded lysine Q96EL2_K94: sol, 231
T1 construct: isoTOP-ABPP experiments performed in cell lysates (in vitro); endogenous in cells; host or cells: soluble proteome of human cancer cell lines (MDA-MB-231; Ramos and Jurkat also prepared)
Description: (§1) In vitro covalent fragment treatment for isoTOP-ABPP. All compounds were made up as solutions in DMSO (100×) and were used at a final concentration of 50 μM for activated esters and 100 μM for guanidinylating agents. For each profiling sample, 0.5 ml of lysate was treated with 5 μl of the 100× compound stock solution or 5 μl of DMSO. Samples were treated with activated esters for
(§2) STP-alkyne labeling and click chemistry. For concentration-dependent reactivity measurements by isoTOP-ABPP, 0.5 ml proteome aliquots were treated at ambient temperature with 1 mM STP-alkyne 1 (5 μl of 100 mM stock in DMSO) and 0.1 mM STP alkyne 1 (5 μl of 10 mM stock in DMSO), respectively. For competitive isoTOP-ABPP, after in vitro fragment treatment (detailed above), the samples were labeled for 1 h at ambient temperature with 0.1 mM STP-alkyne 1 (5 μl of 10 mM stock in DMSO). Samples were conjugated by copper-mediated azide-alkyne cycloaddition (CuAAC) to either the light (1 mM STP-alkyne or fragment treated) or heavy (0.1 mM STP-alkyne or DMSO treated) TEV tags (10 μl of 5 mM stocks in DMSO, final concentration=100 μM) using tris(2-carboxyethyl)phosphine hydrochloride
(§3) R value calculation and processing. The ratios of light and heavy MS1 peaks for each unique peptide were quantified with a CIMAGE software using default parameters (3 MS1 acquisitions per peak and signal to noise threshold set to 2.5). For reactivity measurements by isoTOP-ABPP, the R value was calculated from the ratio of MS1 peak areas, comparing the 1 mM STP alkyne sample (light TEV tag) with the 0.1 mM STP alkyne sample (heavy TEV tag). For competitive isoTOP-ABPP, the R value was calculated from the ratio of MS1 peak areas, comparing the DMSO treated sample (heavy TEV tag) with the compound treated sample (light TEV tag). […] Ratios for unique peptide entries are calculated for each experiment; overlapping peptides with the same modified lysine (for example, different charge states, MudPIT chromatographic steps or tryptic termini) are grouped together and the median ratio is reported as the final ratio (R). The peptide ratios reported by CIMAGE were further filtered to ensure the removal or correction of low-quality ratios in each individual data set. The quality filters applied were the following: removal of half tryptic peptides; for ratios with high standard deviations from the median (90% of the median or above) the lowest ratio was taken instead of the median; removal of peptides with R=20 and only a single MS2 event triggered during the elution of the parent ion; manual annotation of all the peptides with ratios of 20, removing any peptides with low quality elution profiles that remained after the previous curation steps (only done for competitive isoTOP-ABPP).
(§4) Cross-data processing for fragment screening. For compound treated samples, biological replicates of the same condition were averaged, if the standard deviation was below 60% of the mean; otherwise, for lysines with at least one R value <4 for a particular compound, the lowest value of the ratio set was taken. For lysines, where all R values for a particular compound were ≥4, the average was reported. For peptides containing several possible modified lysines, the lysine with the highest number of quantification events was used for analysis and the remaining, redundant peptides were reported as alternative modification sites. Peptides included in the aggregate dataset (those used for further bioinformatics and statistical analyses) were required to have been quantified in 2 experiments for competitive isoTOP-ABPP. Lysines were categorized as liganded, if they had at least one ratio R≥4 (hit fragments). For liganded lysines with R=20 for all liganding events, lysines were required to have been quantified with R=20 in two separate experiments and were further required to have been quantified with R<20 in one additional experiment.

[2] = target: T2, GLUD1 Glutamate dehydrogenase 1, mitochondrial (Homo sapiens, UniProt P00367); conditions: for isoTOP-ABPP ratio (R) at liganded lysine P00367_K480: sol, 231; for isoTOP-ABPP ratio, lysine P00367_K480: possible other lysine P00367_K477
T2 construct: isoTOP-ABPP experiments performed in cell lysates (in vitro); endogenous in cells; host or cells: MDA-MB-231 soluble lysate
T2 sequence (P00367 54-558): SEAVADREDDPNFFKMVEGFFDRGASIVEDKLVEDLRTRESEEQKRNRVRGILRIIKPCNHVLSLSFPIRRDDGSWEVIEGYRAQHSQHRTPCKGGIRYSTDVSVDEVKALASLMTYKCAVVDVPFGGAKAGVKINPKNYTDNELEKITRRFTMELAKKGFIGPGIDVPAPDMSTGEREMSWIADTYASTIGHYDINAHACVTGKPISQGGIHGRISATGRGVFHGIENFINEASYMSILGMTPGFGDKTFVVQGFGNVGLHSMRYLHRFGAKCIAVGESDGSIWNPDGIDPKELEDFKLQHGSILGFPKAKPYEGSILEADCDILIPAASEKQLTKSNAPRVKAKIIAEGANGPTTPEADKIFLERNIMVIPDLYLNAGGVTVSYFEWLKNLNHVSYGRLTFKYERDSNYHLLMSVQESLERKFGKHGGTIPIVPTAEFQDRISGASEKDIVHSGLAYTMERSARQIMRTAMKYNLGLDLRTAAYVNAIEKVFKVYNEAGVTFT
Description: as §1, §2, §3, §4

[3] = target: T3, ERAP1 Endoplasmic reticulum aminopeptidase 1 (Homo sapiens, UniProt Q9NZ08); conditions: for isoTOP-ABPP ratio (R) at liganded lysine Q9NZ08_K685: sol, 231
T3 construct: endogenous in cells; host or cells: MDA-MB-231 lysate
T3 sequence (Q9NZ08 whole entry): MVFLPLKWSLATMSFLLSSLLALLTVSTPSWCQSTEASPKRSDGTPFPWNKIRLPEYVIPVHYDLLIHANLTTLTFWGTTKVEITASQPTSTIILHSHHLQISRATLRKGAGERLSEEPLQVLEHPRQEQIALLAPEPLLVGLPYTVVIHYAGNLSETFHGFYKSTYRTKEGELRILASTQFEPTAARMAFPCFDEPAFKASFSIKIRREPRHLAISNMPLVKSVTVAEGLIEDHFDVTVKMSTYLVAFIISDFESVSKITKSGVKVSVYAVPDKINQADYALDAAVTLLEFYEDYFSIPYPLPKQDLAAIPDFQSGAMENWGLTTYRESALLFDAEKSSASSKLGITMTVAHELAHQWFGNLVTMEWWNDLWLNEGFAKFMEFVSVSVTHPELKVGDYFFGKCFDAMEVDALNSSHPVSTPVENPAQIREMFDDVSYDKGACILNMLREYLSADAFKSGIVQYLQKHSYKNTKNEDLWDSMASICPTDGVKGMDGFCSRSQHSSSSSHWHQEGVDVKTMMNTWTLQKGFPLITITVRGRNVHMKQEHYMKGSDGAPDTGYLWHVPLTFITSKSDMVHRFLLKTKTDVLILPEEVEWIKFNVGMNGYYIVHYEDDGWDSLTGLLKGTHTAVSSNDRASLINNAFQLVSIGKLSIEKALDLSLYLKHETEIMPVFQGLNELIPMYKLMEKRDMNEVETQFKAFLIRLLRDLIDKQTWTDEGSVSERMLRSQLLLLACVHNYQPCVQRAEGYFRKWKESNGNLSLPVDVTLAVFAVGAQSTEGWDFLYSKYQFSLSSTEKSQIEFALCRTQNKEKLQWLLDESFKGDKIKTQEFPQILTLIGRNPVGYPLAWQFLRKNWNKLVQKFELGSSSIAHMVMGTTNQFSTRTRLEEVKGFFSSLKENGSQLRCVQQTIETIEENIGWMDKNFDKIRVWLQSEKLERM
Description: as §1, §2, §3, §4

[4] = target: T4, TRMT10C Mitochondrial ribonuclease P protein 1 (Homo sapiens, UniProt Q7L0Y3); conditions: for isoTOP-ABPP ratio (R) at liganded lysine Q7L0Y3_K325: sol, 231
T4 construct: isoTOP-ABPP experiments performed in cell lysates (in vitro); endogenous in cells; host or cells: soluble proteome of human cancer cell lines (MDA-MB-231; Ramos and Jurkat also prepared)
T4 sequence (Q7L0Y3 40-403): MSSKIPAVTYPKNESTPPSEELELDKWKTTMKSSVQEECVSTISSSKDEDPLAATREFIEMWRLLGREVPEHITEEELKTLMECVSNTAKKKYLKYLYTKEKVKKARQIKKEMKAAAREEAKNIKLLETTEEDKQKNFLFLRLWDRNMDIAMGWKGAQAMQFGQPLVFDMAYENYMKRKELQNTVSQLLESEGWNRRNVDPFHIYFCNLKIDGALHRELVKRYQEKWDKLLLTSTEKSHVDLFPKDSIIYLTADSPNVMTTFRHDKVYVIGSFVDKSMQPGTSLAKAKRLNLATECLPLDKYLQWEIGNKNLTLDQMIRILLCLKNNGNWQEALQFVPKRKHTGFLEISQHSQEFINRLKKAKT
Description: as §1, §2, §3, §4

[5] = target: T5, KIAA1967 DBIRD complex subunit KIAA1967 (Homo sapiens, UniProt Q8N163)
T5 construct: isoTOP-ABPP experiments performed in cell lysates (in vitro); endogenous in cells; host or cells: soluble proteome of human cancer cell lines (MDA-MB-231; Ramos and Jurkat also prepared)
T5 sequence (Q8N163 whole entry, one chain of several): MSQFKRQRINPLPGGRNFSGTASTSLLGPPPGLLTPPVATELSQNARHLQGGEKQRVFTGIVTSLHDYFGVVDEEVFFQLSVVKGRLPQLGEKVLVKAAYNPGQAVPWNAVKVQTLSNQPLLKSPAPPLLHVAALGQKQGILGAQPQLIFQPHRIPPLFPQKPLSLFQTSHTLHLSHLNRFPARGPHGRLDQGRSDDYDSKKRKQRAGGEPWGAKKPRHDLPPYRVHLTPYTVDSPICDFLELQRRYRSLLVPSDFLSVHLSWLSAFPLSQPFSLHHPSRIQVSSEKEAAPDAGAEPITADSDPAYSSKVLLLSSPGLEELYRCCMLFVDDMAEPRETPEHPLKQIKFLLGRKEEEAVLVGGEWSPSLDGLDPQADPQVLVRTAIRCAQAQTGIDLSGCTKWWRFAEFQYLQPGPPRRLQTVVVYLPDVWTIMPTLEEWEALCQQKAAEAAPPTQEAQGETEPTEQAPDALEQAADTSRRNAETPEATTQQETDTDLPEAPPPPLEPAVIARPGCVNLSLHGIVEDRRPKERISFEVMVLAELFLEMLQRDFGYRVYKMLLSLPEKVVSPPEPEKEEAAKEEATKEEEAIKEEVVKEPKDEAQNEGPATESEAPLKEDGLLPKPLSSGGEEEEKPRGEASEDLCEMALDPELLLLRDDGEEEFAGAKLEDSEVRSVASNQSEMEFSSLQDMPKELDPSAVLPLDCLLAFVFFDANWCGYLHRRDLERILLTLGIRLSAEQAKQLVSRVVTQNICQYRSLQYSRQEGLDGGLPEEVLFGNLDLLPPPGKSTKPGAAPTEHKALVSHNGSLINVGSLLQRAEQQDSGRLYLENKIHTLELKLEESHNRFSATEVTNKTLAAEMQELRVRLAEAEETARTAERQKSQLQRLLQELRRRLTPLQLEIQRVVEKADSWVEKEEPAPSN
Description: as §1, §2, §3, §4

DCTN2 Dynactin subunit 2 = target: T6, DCTN2 Dynactin subunit 2 (Homo sapiens, UniProt Q13561)
T6 construct: isoTOP-ABPP experiments performed in cell lysates (in vitro); endogenous in cells; host or cells: soluble proteome of human cancer cell lines (MDA-MB-231, Ramos, Jurkat)
T6 sequence (Q13561 whole entry): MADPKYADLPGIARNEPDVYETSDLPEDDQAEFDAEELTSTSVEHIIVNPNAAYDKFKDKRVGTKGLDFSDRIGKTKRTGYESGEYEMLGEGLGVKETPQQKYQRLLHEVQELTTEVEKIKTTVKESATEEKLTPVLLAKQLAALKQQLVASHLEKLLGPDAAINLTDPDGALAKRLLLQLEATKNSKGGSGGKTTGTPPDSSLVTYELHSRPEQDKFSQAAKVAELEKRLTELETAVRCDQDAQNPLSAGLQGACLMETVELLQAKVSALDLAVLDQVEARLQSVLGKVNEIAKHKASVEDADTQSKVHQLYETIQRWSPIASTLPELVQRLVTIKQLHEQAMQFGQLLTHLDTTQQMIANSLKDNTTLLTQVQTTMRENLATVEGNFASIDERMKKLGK
Description: as §1, §2, §3, §4

[6] = target: T7, NAA25 N-alpha-acetyltransferase 25, NatB auxiliary subunit (Homo sapiens, UniProt Q14CX7); conditions: 50 uM, 231 sol, in vitro
T7 construct: isoTOP-ABPP experiments performed in cell lysates (in vitro); endogenous in cells; host or cells: soluble proteome of human cancer cell lines (MDA-MB-231; Ramos and Jurkat also prepared)
T7 sequence (Q14CX7 whole entry): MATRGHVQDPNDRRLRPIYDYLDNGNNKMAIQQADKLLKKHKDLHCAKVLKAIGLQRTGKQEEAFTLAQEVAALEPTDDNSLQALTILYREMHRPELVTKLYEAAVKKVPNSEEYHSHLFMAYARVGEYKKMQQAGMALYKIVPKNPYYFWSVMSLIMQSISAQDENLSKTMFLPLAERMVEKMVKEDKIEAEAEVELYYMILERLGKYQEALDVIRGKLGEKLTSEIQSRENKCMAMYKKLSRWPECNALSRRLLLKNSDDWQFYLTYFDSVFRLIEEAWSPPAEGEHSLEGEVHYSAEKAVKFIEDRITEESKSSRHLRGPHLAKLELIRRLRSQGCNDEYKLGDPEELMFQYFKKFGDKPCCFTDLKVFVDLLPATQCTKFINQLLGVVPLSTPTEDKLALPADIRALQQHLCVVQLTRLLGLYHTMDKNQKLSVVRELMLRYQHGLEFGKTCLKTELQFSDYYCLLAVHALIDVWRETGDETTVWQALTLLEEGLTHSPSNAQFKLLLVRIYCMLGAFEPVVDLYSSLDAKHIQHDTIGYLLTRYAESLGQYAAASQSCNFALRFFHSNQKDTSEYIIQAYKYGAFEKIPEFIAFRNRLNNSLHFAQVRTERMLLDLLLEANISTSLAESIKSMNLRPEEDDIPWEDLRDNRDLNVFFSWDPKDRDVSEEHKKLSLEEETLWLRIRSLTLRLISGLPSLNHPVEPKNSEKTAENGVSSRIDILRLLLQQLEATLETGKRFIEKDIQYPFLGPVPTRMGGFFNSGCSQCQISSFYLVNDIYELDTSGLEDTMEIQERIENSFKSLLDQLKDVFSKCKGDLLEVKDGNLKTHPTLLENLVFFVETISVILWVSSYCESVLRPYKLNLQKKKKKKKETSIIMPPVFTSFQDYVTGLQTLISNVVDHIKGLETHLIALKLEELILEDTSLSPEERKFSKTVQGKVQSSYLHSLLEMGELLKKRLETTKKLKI
Description: as §1, §2, §3, §4

SMILES: O=C(CC12CC3CC(CC(C3)C1)C2)Oc1ccc([N+](=O)[O-])cc1[N+](=O)[O-] [fragment 38, 2,4-Dinitrophenyl 2-(adamantan-1-yl)acetate]
- isoTOP-ABPP ratio (R) at liganded lysine Q96EL2_K94 ([1]; 50 uM, in vitro): 3.1
- isoTOP-ABPP ratio (R) at liganded lysine P00367_K480 ([2]; 50 uM, in vitro): 1.3
- isoTOP-ABPP ratio (R) at liganded lysine Q9NZ08_K685 ([3]; 50 uM, in vitro): 1.0
- isoTOP-ABPP ratio (R) at liganded lysine Q7L0Y3_K325 ([4]; 50 uM, in vitro): 0.8

SMILES: CC(C)(C)OC(=O)N=C(NC(=O)OC(C)(C)C)n1cccn1 [fragment 50, reference compound]
- isoTOP-ABPP ratio, lysine Q8N163_K97 ([5]; 100 uM_231_sol_in vitro): 3.9
- isoTOP-ABPP ratio, lysine Q8N163_K112 ([5]; 100 uM_231_sol_in vitro): 4.7
- isoTOP-ABPP ratio, lysine Q13561_K175 (DCTN2 Dynactin subunit 2; 100 uM_231_sol_in vitro): 1.3
- isoTOP-ABPP ratio, lysine Q96EL2_K94 ([1]; 100 uM_231_sol_in vitro): 2.2
- isoTOP-ABPP ratio, lysine P00367_K480 ([2]; 100 uM_231_sol_in vitro): 1.3
- isoTOP-ABPP ratio, lysine Q9NZ08_K685 ([3]; 100 uM_231_sol_in vitro): 20.0
- isoTOP-ABPP ratio, lysine Q7L0Y3_K325 ([4]; 100 uM_231_sol_in vitro): 6.2

SMILES: O=C(ON1C(=O)CCC1=O)c1cc(C(F)(F)F)cc(C(F)(F)F)c1 [fragment 46, 3,5-Bis(trifluoromethyl)benzoic acid NHS ester]
- isoTOP-ABPP ratio, lysine Q8N163_K97 ([5]; 50 uM_231_sol_in vitro): 0.9
- isoTOP-ABPP ratio, lysine Q8N163_K112 ([5]; 50 uM_231_sol_in vitro): 1.1
- isoTOP-ABPP ratio, lysine Q13561_K175 (DCTN2 Dynactin subunit 2; 50 uM_231_sol_in vitro): 0.8
- isoTOP-ABPP ratio, lysine Q96EL2_K94 ([1]; 50 uM_231_sol_in vitro): 1.0
- isoTOP-ABPP ratio, lysine P00367_K480 ([2]; 50 uM_231_sol_in vitro): 1.5
- isoTOP-ABPP ratio, lysine Q9NZ08_K685 ([3]; 50 uM_231_sol_in vitro): 2.1
- isoTOP-ABPP ratio, lysine Q7L0Y3_K325 ([4]; 50 uM_231_sol_in vitro): 1.0

SMILES: CC(=O)Oc1ccc([N+](=O)[O-])cc1[N+](=O)[O-] [fragment 43, 2,4-Dinitrophenyl acetate]
- isoTOP-ABPP ratio (R) at liganded lysine Q8N163_K97 ([5]; 50 uM, in vitro, sol, 231): 0.9
- isoTOP-ABPP ratio (R) at liganded lysine Q8N163_K112 ([5]; 50 uM, in vitro, sol, 231): 1.0
- isoTOP-ABPP ratio (R) at liganded lysine Q13561_K175 (DCTN2 Dynactin subunit 2; 50 uM, in vitro, sol, 231): 0.6
- isoTOP-ABPP ratio (R) at liganded lysine Q96EL2_K94 ([1]; 50 uM, in vitro): 1.1
- isoTOP-ABPP ratio (R) at liganded lysine P00367_K480 ([2]; 50 uM, in vitro): 3.9
- isoTOP-ABPP ratio (R) at liganded lysine Q9NZ08_K685 ([3]; 50 uM, in vitro): 1.1
- isoTOP-ABPP ratio (R) at liganded lysine Q7L0Y3_K325 ([4]; 50 uM, in vitro): 1.0

Now from value to compound:

- R value (DMSO/fragment) for probe 1 labeling ([5]; Q8N163_K97, 50 uM, 231 sol, in vitro): 0.8
- R value (DMSO/fragment) for probe 1 labeling ([5]; Q8N163_K112, 50 uM, 231 sol, in vitro): 1.1
- R value (DMSO/fragment) for probe 1 labeling (DCTN2 Dynactin subunit 2; Q13561_K175, 50 uM, 231 sol, in vitro): 1.1
- R value (DMSO/fragment) for probe 1 labeling ([1]; Q96EL2_K94, 50 uM, 231 sol, in vitro): 2.1
- R value (DMSO/fragment) for probe 1 labeling ([2]; P00367_K480, 50 uM, 231 sol, in vitro): 1.8
- R value (DMSO/fragment) for probe 1 labeling ([3]; Q9NZ08_K685, 50 uM, 231 sol, in vitro): 1.7
- R value (DMSO/fragment) for probe 1 labeling ([4]; Q7L0Y3_K325, 50 uM, 231 sol, in vitro): 1.3
SMILES: COc1cc(CCC(=O)Oc2c(F)c(F)c(F)c(F)c2F)cc(OC)c1OC [fragment 23, Pentafluorophenyl 3-(3,4,5-trimethoxyphenyl)propanoate]

- isoTOP-ABPP reactivity ratio at lysine Q8N163_K97 ([5]; 50 uM, 231 sol, in vitro): 0.9
- isoTOP-ABPP reactivity ratio at lysine Q8N163_K112 ([5]; 50 uM, 231 sol, in vitro): 1.1
- isoTOP-ABPP reactivity ratio at lysine Q96EL2_K94 ([1]; 50 uM, 231 sol, in vitro): 1.0
- isoTOP-ABPP reactivity ratio at lysine Q14CX7_K575 [6]: 0.8
- isoTOP-ABPP reactivity ratio at lysine P00367_K480 ([2]; 50 uM, 231 sol, in vitro): 1.0
- isoTOP-ABPP reactivity ratio at lysine Q9NZ08_K685 ([3]; 50 uM, 231 sol, in vitro): 1.4
SMILES: CCn1cc(C(=O)Oc2c(F)c(F)c(F)c(F)c2F)c(=O)c2ccc(C)nc21 [fragment 28, Pentafluorophenyl 1-ethyl-7-methyl-4-oxo-1,4-dihydro-1,8-naphthyridine-3-carboxylate]
